Test results from patent publication US12331035B2, “Bicyclic compound and use thereof” (SK BIOPHARMACEUTICALS CO., LTD., priority 2019, dated 2025).

Target: T1, PRMT5-MEP50 enzyme complex (Homo sapiens, UniProt O14744)
T1 construct: purchased BPS Bioscience (USA) 51045
Experiment: In vitro PRMT5 enzyme activity assay (methylation of histone H4 arginine H4R3, ELISA absorbance at 450 nm)
Type: biochemical
Details: S-adenosylmethionine, histone H4 peptide, 2 hours at room temperature, 8 points 10 μM to 0.128 nM
Summary of the method: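 Human PRMT5-MEP50 (5 μg/mL working stock) with 2 μM SAM stock on histone H4 (1-20) peptide-coated plates, compound 8-point 1:5 series from 10 μM, 2 h at room temperature. H4R3 methylation detected by antibody/HRP ELISA, absorbance 450 nm; IC50 calculated.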

T1 sequence (O14744 2-637 limits assumed): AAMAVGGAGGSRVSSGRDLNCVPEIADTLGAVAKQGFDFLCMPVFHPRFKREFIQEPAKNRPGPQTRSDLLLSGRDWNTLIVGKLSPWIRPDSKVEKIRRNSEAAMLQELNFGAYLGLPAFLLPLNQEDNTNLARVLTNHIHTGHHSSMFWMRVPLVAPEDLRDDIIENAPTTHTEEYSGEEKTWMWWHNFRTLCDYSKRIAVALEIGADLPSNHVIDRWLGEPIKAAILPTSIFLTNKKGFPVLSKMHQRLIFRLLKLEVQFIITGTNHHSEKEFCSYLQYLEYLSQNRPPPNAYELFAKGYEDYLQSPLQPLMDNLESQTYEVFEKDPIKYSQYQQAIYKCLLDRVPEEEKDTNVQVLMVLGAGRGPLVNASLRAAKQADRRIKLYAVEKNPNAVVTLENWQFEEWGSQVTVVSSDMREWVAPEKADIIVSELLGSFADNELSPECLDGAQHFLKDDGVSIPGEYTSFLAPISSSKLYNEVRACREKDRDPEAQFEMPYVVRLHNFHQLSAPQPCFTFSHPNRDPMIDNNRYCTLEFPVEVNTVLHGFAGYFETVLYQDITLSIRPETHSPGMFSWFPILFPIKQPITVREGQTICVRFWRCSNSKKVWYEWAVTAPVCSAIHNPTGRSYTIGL
T1 sequence (Q9BQA1 2-342 partner limits assumed): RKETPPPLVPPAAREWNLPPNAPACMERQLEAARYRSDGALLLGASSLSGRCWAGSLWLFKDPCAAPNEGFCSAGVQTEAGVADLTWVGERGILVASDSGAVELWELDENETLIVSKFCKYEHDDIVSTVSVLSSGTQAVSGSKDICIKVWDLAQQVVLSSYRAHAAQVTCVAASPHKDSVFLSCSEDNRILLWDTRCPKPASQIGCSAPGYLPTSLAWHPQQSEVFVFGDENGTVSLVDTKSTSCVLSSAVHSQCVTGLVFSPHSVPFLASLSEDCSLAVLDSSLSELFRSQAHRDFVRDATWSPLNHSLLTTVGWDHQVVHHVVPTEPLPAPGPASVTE

Row | IC50 | SMILES
1 | 1 to 100 nM | O=C1c2ccc(N3CCC(CO)CC3)cc2CCN1C[C@H](O)CN1CCc2ccccc2C1 [Example 35, 2-[(2R)-3-(3,4-dihydro-1H-isoquinolin-2-yl)-2-hydroxy-propyl]-6-[4-(hydroxymethyl)-1-piperidyl]-3,4-dihydroisoquinolin-1-one]
2 | 100 to 1000 nM | CC(C)(C)OC(=O)N1CCC(c2ccc3c(c2)CCN(C[C@H](O)CN2CCc4ccccc4C2)C3=O)CC1 [Example 63, tert-butyl 4-[2-[(2R)-3-(3,4-dihydro-1H-isoquinolin-2-yl)-2-hydroxy-propyl]-1-oxo-3,4-dihydroisoquinolin-6-yl]piperidine-1-carboxylate]
3 | 1 to 100 nM | O=C1c2ccc(OCCN3CCOCC3)cc2CCN1C[C@H](O)CN1CCc2ccccc2C1 [Example 113, 2-[(2R)-3-(3,4-dihydro-1H-isoquinolin-2-yl)-2-hydroxy-propyl]-6-(2-morpholinoethoxy)-3,4-dihydroisoquinolin-1-one]
4 | 100 to 1000 nM | O=C1c2ccc(N3CCCC3)cc2CCN1C[C@H](O)CN1CCc2ccccc2C1 [Example 2, 2-[(2R)-3-(3,4-dihydro-1H-isoquinolin-2-yl)-2-hydroxy-propyl]-6-pyrrolidin-1-yl-3,4-dihydroisoquinolin-1-one]
5 | 1 to 100 nM | C[C@H]1CN(c2ccc3c(c2)CCN(C[C@H](O)CN2CCc4ccccc4C2)C3=O)CCO1 [Example 47, 2-[(2R)-3-(3,4-dihydro-1H-isoquinolin-2-yl)-2-hydroxy-propyl]-6-[(2S)-2-methylmorpholin-4-yl]-3,4-dihydroisoquinolin-1-one]
6 | 1 to 100 nM | O=C1c2ccc(N3CCN(C(=O)C(F)(F)F)CC3)cc2CCN1C[C@H](O)CN1CCc2ccccc2C1 [Example 62, 2-[(2R)-3-(3,4-dihydro-1H-isoquinolin-2-yl)-2-hydroxy-propyl]-6-[4-(2,2,2-trifluoroacetyl)piperazin-1-yl]-3,4-dihydroisoquinolin-1-one]
7 | 100 to 1000 nM | CCC(=O)N1CCN(c2ccc3c(c2)CCN(C[C@H](O)CN2CCc4ccccc4C2)C3=O)CC1 [Example 69, 2-[(2R)-3-(3,4-dihydro-1H-isoquinolin-2-yl)-2-hydroxy-propyl]-6-(4-propanoylpiperazin-1-yl)-3,4-dihydroisoquinolin-1-one]
8 | 1 to 100 nM | CC(C)(C)OC(=O)N1CCCN(c2ccc3c(c2)CCN(C[C@H](O)CN2CCc4ccccc4C2)C3=O)CC1 [Example 78, tert-butyl 4-[2-[(2R)-3-(3,4-dihydro-1H-isoquinolin-2-yl)-2-hydroxy-propyl]-1-oxo-3,4-dihydroisoquinolin-6-yl]-1,4-diazepane-1-carboxylate]
9 | 1 to 100 nM | O=C1c2ccc(Br)cc2CCN1C[C@H](O)CN1CCc2ccccc2C1 [Example 1, 6-bromo-2-[(2R)-3-(3,4-dihydro-1H-isoquinolin-2-yl)-2-hydroxy-propyl]-3,4-dihydroisoquinolin-1-one]
10 | 1 to 100 nM | CC(C)(C)C(=O)N1CCN(c2ccc3c(c2)CCN(C[C@H](O)CN2CCc4ccccc4C2)C3=O)CC1 [Example 71, 2-[(2R)-3-(3,4-dihydro-1H-isoquinolin-2-yl)-2-hydroxy-propyl]-6-[4-(2,2-dimethylpropanoyl)piperazin-1-yl]-3,4-dihydroisoquinolin-1-one]
11 | 1 to 100 nM | CC(=O)N1CCN(c2ccc3c(n2)CCN(C[C@H](O)CN2CCc4ccccc4C2)C3=O)CC1 [Example 88, 2-(4-acetylpiperazin-1-yl)-6-[(2R)-3-(3,4-dihydro-1H-isoquinolin-2-yl)-2-hydroxy-propyl]-7,8-dihydro-1,6-naphthyridin-5-one]
12 | 100 to 1000 nM | O=C1c2ccc(N3CCC(N4CCOCC4)CC3)cc2CCN1C[C@H](O)CN1CCc2ccccc2C1 [Example 108, 2-[(2R)-3-(3,4-dihydro-1H-isoquinolin-2-yl)-2-hydroxy-propyl]-6-(4-morpholino-1-piperidyl)-3,4-dihydroisoquinolin-1-one]
13 | 100 to 1000 nM | O=C1c2ccc(N3CC(CO)C3)cc2CCN1C[C@H](O)CN1CCc2ccccc2C1 [Example 46, 2-[(2R)-3-(3,4-dihydro-1H-isoquinolin-2-yl)-2-hydroxy-propyl]-6-[3-(hydroxymethyl)azetidin-1-yl]-3,4-dihydroisoquinolin-1-one]
14 | 100 to 1000 nM | CCN1CCC(Oc2ccc3c(c2)CCN(C[C@H](O)CN2CCc4ccccc4C2)C3=O)CC1 [Example 114, 2-[(2R)-3-(3,4-dihydro-1H-isoquinolin-2-yl)-2-hydroxy-propyl]-6-[(1-ethyl-4-piperidyl)oxy]-3,4-dihydroisoquinolin-1-one]
15 | 100 to 1000 nM | CC(=O)N1CCN(c2ccc3c(c2)CCN(C(C)C(O)CN2CCc4ccccc4C2)C3=O)CC1 (stereo not shown) [Example 129, 6-(4-acetylpiperazin-1-yl)-2-[3-(3,4-dihydro-1H-isoquinolin-2-yl)-2-hydroxy-1-methyl-propyl]-3,4-dihydroisoquinolin-1-one]
16 | 1000 to 10000 nM | O=C1c2ccc(N3CCOCC3)cc2C(F)(F)CN1C[C@H](O)CN1CCc2ccccc2C1 [Example 132, 2-[(2R)-3-(3,4-dihydro-1H-isoquinolin-2-yl)-2-hydroxy-propyl]-4,4-difluoro-6-morpholino-3H-isoquinolin-1-one]

Row | IC50 | SMILES
17 | 100 to 1000 nM | CS(=O)(=O)N1CCN(c2ccc3c(c2)CCN(C[C@H](O)CN2CCc4ccccc4C2)C3=O)CC1 [Example 59, 2-[(2R)-3-(3,4-dihydro-1H-isoquinolin-2-yl)-2-hydroxy-propyl]-6-(4-methylsulfonylpiperazin-1-yl)-3,4-dihydroisoquinolin-1-one]
18 | 1 to 100 nM | CN1CCN(c2ccc3c(c2)CCN(C[C@H](O)CN2CCc4ccccc4C2)C3=O)CC1 [Example 17, 2-[(2R)-3-(3,4-dihydro-1H-isoquinolin-2-yl)-2-hydroxy-propyl]-6-(4-methylpiperazin-1-yl)-3,4-dihydroisoquinolin-1-one]
19 | 100 to 1000 nM | O=C1c2ccc(N3CCOC3=O)cc2CCN1C[C@H](O)CN1CCc2ccccc2C1 [Example 45, 3-[2-[(2R)-3-(3,4-dihydro-1H-isoquinolin-2-yl)-2-hydroxy-propyl]-1-oxo-3,4-dihydroisoquinolin-6-yl]oxazolidin-2-one]
20 | 1 to 100 nM | CC(=O)N1CCN(Cc2ccc3c(c2)CCN(C[C@H](O)CN2CCc4ccccc4C2)C3=O)CC1 [Example 68, 6-[(4-acetylpiperazin-1-yl)methyl]-2-[(2R)-3-(3,4-dihydro-1H-isoquinolin-2-yl)-2-hydroxy-propyl]-3,4-dihydroisoquinolin-1-one]
21 | 1 to 100 nM | CC(=O)N1CCC(CNc2ccc3c(c2)CCN(C[C@H](O)CN2CCc4ccccc4C2)C3=O)CC1 [Example 24, 6-[(1-acetyl-4-piperidyl)methylamino]-2-[(2R)-3-(3,4-dihydro-1H-isoquinolin-2-yl)-2-hydroxy-propyl]-3,4-dihydroisoquinolin-1-one]
22 | 1 to 100 nM | O=C1c2ccc(N3CC4(COC4)C3)cc2CCN1C[C@H](O)CN1CCc2ccccc2C1 [Example 44, 2-[(2R)-3-(3,4-dihydro-1H-isoquinolin-2-yl)-2-hydroxy-propyl]-6-(2-oxa-6-azaspiro[3.3]heptan-6-yl)-3,4-dihydroisoquinolin-1-one]
23 | 1 to 100 nM | C[C@@H]1CN(c2ccc3c(c2)CCN(C[C@H](O)CN2CCc4ccccc4C2)C3=O)CCO1 [Example 16, 2-[(2R)-3-(3,4-dihydro-1H-isoquinolin-2-yl)-2-hydroxy-propyl]-6-[(2R)-2-methylmorpholin-4-yl]-3,4-dihydroisoquinolin-1-one]
24 | 1 to 100 nM | CC(=O)N(C)C1CCN(c2ccc3c(c2)CCN(C[C@H](O)CN2CCc4ccccc4C2)C3=O)CC1 [Example 90, N-[1-[2-[(2R)-3-(3,4-dihydro-1H-isoquinolin-2-yl)-2-hydroxy-propyl]-1-oxo-3,4-dihydroisoquinolin-6-yl]-4-piperidyl]-N-methyl-acetamide]
25 | 100 to 1000 nM | CN1CCN(c2ccc3c(c2)CCN(C[C@H](O)CN2CCc4ccccc4C2)C3=O)CCC1=O [Example 84, 2-[(2R)-3-(3,4-dihydro-1H-isoquinolin-2-yl)-2-hydroxy-propyl]-6-(4-methyl-5-oxo-1,4-diazepan-1-yl)-3,4-dihydroisoquinolin-1-one]
26 | 100 to 1000 nM | O=C1c2ccc(N3CCC(N4CCCCC4)CC3)cc2CCN1C[C@H](O)CN1CCc2ccccc2C1 [Example 107, 2-[(2R)-3-(3,4-dihydro-1H-isoquinolin-2-yl)-2-hydroxy-propyl]-6-[4-(1-piperidyl)-1-piperidyl]-3,4-dihydroisoquinolin-1-one]
27 | 1000 to 10000 nM | O=C1c2ccc(NC3CCNCC3)cc2CCN1C[C@H](O)CN1CCc2ccccc2C1 [Example 34, 2-[(2R)-3-(3,4-dihydro-1H-isoquinolin-2-yl)-2-hydroxy-propyl]-6-(4-piperidylamino)-3,4-dihydroisoquinolin-1-one]
28 | 1 to 100 nM | O=C1c2ccc(NCc3ccccc3)cc2CCN1C[C@H](O)CN1CCc2ccccc2C1 [Example 7, 6-(benzylamino)-2-[(2R)-3-(3,4-dihydro-1H-isoquinolin-2-yl)-2-hydroxy-propyl]-3,4-dihydroisoquinolin-1-one]
29 | 1 to 100 nM | O=C1c2ccc(NC3CCOCC3)cc2CCN1C[C@H](O)CN1CCc2ccccc2C1 [Example 5, 2-[(2R)-3-(3,4-dihydro-1H-isoquinolin-2-yl)-2-hydroxy-propyl]-6-(tetrahydropyran-4-ylamino)-3,4-dihydroisoquinolin-1-one]
30 | 1 to 100 nM | CC(C)C(=O)N1CCN(c2ccc3c(c2)CCN(C[C@H](O)CN2CCc4ccccc4C2)C3=O)CC1 [Example 70, 2-[(2R)-3-(3,4-dihydro-1H-isoquinolin-2-yl)-2-hydroxy-propyl]-6-[4-(2-methylpropanoyl)piperazin-1-yl]-3,4-dihydroisoquinolin-1-one]
31 | 1000 to 10000 nM | CCOC(=O)N1CCN(c2ccc3c(c2)CCN(C[C@H](O)CN2CCc4ccccc4C2)C3=O)CC1 [Example 65, ethyl 4-[2-[(2R)-3-(3,4-dihydro-1H-isoquinolin-2-yl)-2-hydroxy-propyl]-1-oxo-3,4-dihydroisoquinolin-6-yl]piperazine-1-carboxylate]
